Laboratory results from patent US7112318B2, “Non-invasive diagnostic imaging technology for mitochondria dysfunction using radiolabeled lipophilic salts” (The Johns Hopkins University, priority 2002, dated 2006).

How the values were obtained:
[1] = test system: Human lung carcinoma H549 cells; assay: Mitochondria membrane potential (MMP)-dependent cellular uptake with CCCP; type: cell-based; settings: 30 min
Experimental: The extent of MMP-dependent cellular uptake of F-18-FBnTP was assessed using CCCP, a known protonophore that selectively abolishes the MMP.
Methods: Human lung carcinoma H549 cells ([…]) were incubated with 0.1 μCi/ml F-18-FBnTP for 30 min. Samples of the suspension (1 mL) were transferred to Eppendorf s vials and placed in a 370C bath. Varying concentrations (30, 60, 90, 120 μM) of CCCP were added to the suspension. After 30 min of incubation with CCCP, the Eppendorf vials were centrifuged for 1 min, and activity in pellet and supernatant was immediately counted.

[2] = test system: orthotopic NMU mammary tumor; assay: Tracer uptake in NMU mammary tumor versus healthy gland and FCA inflammation; type: in vivo; settings: NMU-bearing rats, 60 min after i.v., normalized to muscle
From the text: The carcinogen nitrosomethyl urea (NMU) induces carcinoma tumors solely in the mammary gland of female rats. Therefore, the orthotopic NMU mammary tumor is an excellent model for evaluating tracer tumor selectivity by contrasting radioactivity accumulating in mammary gland infested with carcinoma cells and healthy mammary gland. Freund Complete Adjuvant (FCA) is a well_studied inflammation agent in rats Induction of FCA inflammation in NMU-bearing rats allows for direct quantitation of tracer capability to differentiate carcinoma from inflammation.
(§1) 0.1 ml of nitrosomethyl urea (NUM) was introduced i.p in female rats (150 g). When tumor reached an approximate size of 1 to 1.5 cm, FCA was injected (0.15 ml) to the hind limb footpad. Uptake assays were carried out 3 days thereafter. F-18-FBnTP (0.25 mCi) was injected via tail vein. Sixty minutes later tumor, inflamed tissue and healthy muscle tissue of the opposite limb (control) were collected on ice, weighed and counted in a gamma counter together with standards.

myocardium [3] = assay: F-18-FBnTP uptake kinetics in the myocardium (dog PET); type: in vivo, Mongrel dogs
Experimental: Methods: Mongrel dogs (BW=35 kg) were injected with 3–4 mCi of F-18-FBnTP. Images were acquired on a GE 4096+ scanner (15 slices, 6.5 mm slice thickness). PET scans of increasing duration (15 sec to 20 min) were acquired over a total time of 85 min post-injection. Arterial blood samples (0.5 ml in volume) were collected every few seconds for the first 3 minutes and at gradually increasing intervals (1 to 10 min) for the remaining time of the imaging study. The vascular and myocardial kinetics of F-18-FBnTP was analyzed using the ROI method.

FCA-induced inflammation = assay: Accumulation in FCA-induced inflammation tissue and healthy muscle; type: in vivo; settings: rats, 3 days after administration of FCA
Experimental: as §1
The accumulation of the novel F-18-phosphonium cations, F-18-FBnTP and F-18-fluoropropyl triphenyl phosphonium (F-18-FPTP) in comparison with F-18-FDG in FCA-induced inflammation and healthy tissue is presented in Table 2. Induction of inflammation and activity counting were carried out as described above.

[4] = Biodistribution in mice 60 min after i.v. injection; settings: 60 min after iv. injection
Experimental: Three to five mice were used for the biodistribution study of each tracer. Nonanesthetized animals were injected i.v. with tracer solution (FBnTP or FPTP, TPMP 25 μCi; MIBI 40 μCi; TPP 2 μCi, all in a volume of 0.2 mL saline) then killed by neck dislocation at 60 min after injection. The organs and tissues of interest were removed and counted by a radioactivity counter along with standards (1:1000) (LKB Wallac, 1282 Compugamma CS).

[5] = test system: human lung carcinoma A549 cells; assay: Detection of response of lung carcinoma tumor to taxeter in vivo; settings: A549 tumor in nude mice, 48 hours after i.v. taxeter, 60 min after tracer, normalized to muscle
Experimental: Methods: 2×10^6 human lung carcinoma A549 cells were inoculated s.q. in 12 nude mice. When tumor size reached an approximate size of 5—10 mm, six mice were injected i.v. with taxeter and six mice served as control. Uptake assays were carried out 48 hours thereafter. 25 μCi of F-18-FBnTP were injected i.v., and tumor and muscle tissue was dissected after 60 min.

[6] = Stability in plasma after injection of the agent into mice (column-switch HPLC radiochromatography); type: in vivo
Experimental: Samples of mouse plasma were obtained from heparinized whole bloodcollected 5, 15 and 30 min p.i. of the tracer. To eliminate binding to plasma proteins, the plasma was added to solid urea to give a final concentration of 8M urea. The plasma-urea was loaded into a column switch HPLC system (Hilton 2000), in which the plasma passes through a small capture column (Oasis Sorbent, Waters Corp.), which retains lipophilic solutes, while polar species fail to bind and are detected as they pass through a positron detector. After four minutes, the capture column is free of plasma proteins and polar species. Then, the contents of the capture column was swept onto an analytical column (Prodigy ODS-3, Phenomenex) by 40% acetonitrile, 60% triethylamine acetate buffer pH 4.1 at 1 mL/min, where separation of the parent compound and lipophilic metabolites occurs. The effluent from the analytical column also passes through the positron flow detector. The proportion of each species is determined from the area under each chromatographic peak. Results: Radiochemical purity of the 18F-labeled FBnTP was more than 95%. […] FIG. 1 depicts the chromatogram of plasma collected 30 min p.i., and the parental compound incubated for a similar time period (30 min) in buffered saline. Plasma activity and parental compound peaked at same time (˜6 min).

myocardium [7] = assay: F-18-FBnTP myocardial accumulation in heart failure (pacing 210 bpm, 4 weeks, PET); type: in vivo, Mongrel dog
Experimental: Pacing of the mongrel dog heart at high rate (210 bpm) for a four weeks is a well-established model of heart failure. The advantage of this model is that the cardiomayopathy solely involve apoptosis without stenosis of coronary artery or related ischemia. Therefore, in this model the affect of apoptosis on FBnTP uptake can be dissected.
Methods: Preparation of dog and data acquisition was performed as described above. Mongrel dog was installed with a pacemaker in the rib case and underwent FBnTP PET scan (presented above). Following the baseline scan, the dog_s heart was paced at a rate of 210 bpm for 4 weeks and a second scan was acquired.
Quantitation of FBnTP in the myocardium was performed using region of interest placed on co-registered myocardial images, whose activity was normalized to the injected dose, before and after pacing. An example for ROI placement is illustrated in FIG. 18.

[8] = Stability of fluorination: total bone uptake after i.v. injection; type: in vivo; settings: mice, 5 and 30 min p.i., compared to mice injected with F-18 only
Experimental: Methods: Mice were injected via the tail vein with 25 μCi of F-18-PhC; 5 and 30 min p.i., the left or right femur bone was removed, and bone radioactivity together with standard (1:100 of injected dose) were counted in a gamma counter. A parallel group of mice was injected with free fluorides (F-18). Three mice of each group were studied at each time point. Radioactivity is represented as percentage of injected dosed (% ID) and total bone uptake was calculated as activity in femur bone×20.

prostate carcinoma = assay: Tumor selectivity in orthotopic model of prostate carcinoma; type: in vivo; settings: nude mice, normalized to muscle
Experimental: Methods: 2×10^6 cells were injected, under anesthesia, into the prostate epithelial tissue of nude mice. When tumor reached an approximate size of 5 mm, uptake assays were performed as described above. Tumor selectivity of F-18-FBnTP and F-18-FDG was compared (3 mice in each group)

uptake in tumor relative to healthy gland [2]: 4 times | uptake in tumor relative to inflammation ([2]; FCA inflammation 3 days): 3 times | accumulation in the myocardium, time to equilibrium (myocardium [3]; dog PET, 85 min scan): reached equilibrium within a few minutes | washout from the blood pool (myocardium [3]; dog, arterial blood samples): rapid washout | Inf/Control (FCA-induced inflammation): 0.42 ± 0.40 | accumulation, Blood (FCA-induced inflammation): 0.10 ± 0.01 % ID/g tissue | accumulation, Control (healthy muscle) (FCA-induced inflammation): 0.76 ± 0.21 % ID/g tissue | accumulation, Inflammation (FCA-induced inflammation): 0.27 ± 0.22 % ID/g tissue | biodistribution, blood [4]: 0.02 ± 0.00 % ID/g | biodistribution, brain [4]: 0.07 ± 0.01 % ID/g | biodistribution, heart [4]: 35.39 ± 5.02 % ID/g | biodistribution, kidney [4]: 4.89 ± 0.88 % ID/g | biodistribution, liver [4]: 3.00 ± 1.12 % ID/g | biodistribution, lung [4]: 7.38 ± 1.55 % ID/g | biodistribution, muscle [4]: 4.31 ± 1.30 % ID/g | biodistribution, spleen [4]: 1.79 ± 0.57 % ID/g | stable after intravenous injection in vivo ([6]; mice, plasma radiochromatograms): more than 30 min | single radio-peak in plasma, share of total activity ([6]; mouse plasma after i.v. injection, no other peak observed): 97% | myocardial uptake, Baseline (myocardium [7]; Slices 46–49, ROI1, average activity over 36 to 85 min per slice): *108.62 % of injected dose | total bone uptake [8]: minimal bone uptake | total bone uptake ([8]; listed as F-18-PhC): marginal bone uptake | uptake ratio of malignant-to-normal prostate tissue (prostate carcinoma): 2.5
SMILES: [18F]c1ccc(C[P+](c2ccccc2)(c2ccccc2)c2ccccc2)cc1 [Example F-18-FBnTP, F-18-fluorobenzyl triphenyl phosphonium]
cellular uptake in the presence of varying concentrations of CCCP ([1]; CCCP 30, 60, 90, 120 μM): dose-dependent decrease | MMP-dependent share of cellular uptake ([1]; CCCP 30-120 μM): 86% | decrease in accumulation in tumor after taxeter, compared to non-treated mice [5]: ~50% | Ratio P/B (myocardium [7]; Slices 36–37, ROI1): 0.62 | Ratio P/B (myocardium [7]; Slices 36–37, ROI2): 0.91 | Ratio P/B (myocardium [7]; Slices 36–37, ROI3): 0.85 | Ratio P/B (myocardium [7]; Slices 46–49, ROI1): 0.56 | Ratio P/B (myocardium [7]; Slices 46–49, ROI2): 0.76 | Ratio P/B (myocardium [7]; Slices 46–49, ROI3): 0.82 | decrease in uptake in the inferior wall after pacing (myocardium [7]; dog, 4-wks pacing at 210 bpm versus baseline): 40–60%
